# Assays:
# Type in all cases: in vivo
# mice [1] = test: Motor activity in mice (activity meters with photoelectric cells); conditions: comparison of isomers; 32 mg/kg administered orally; schematic grades; listed as α diastereoisomer, 32 mg/kg
# Procedure: The motor activity was determined with the aid of activity meters having photoelectric cells (Boissier and Simon, Arch. int. Pharmacodyn. 1965, 158, 212-221). A minimum of 10 animals was always used per batch.
# The mice are placed in the activity meter just after the oral or intraperitoneal administration of the product acccording to the invention, obtained in accordance with Example I. The motor activity is measured as from the introduction into the activity meter up to the 60th minute. The counters are read after 30 minutes, then reset to 0 and read every 10 minutes for 30 minutes.
# rats [2] = test: Study of the stereotypies in rats; conditions: comparison of isomers, 32 mg/kg administered orally, schematic grades, 32 mg/kg
# Procedure: Study of the stereotypies in rats
# (§1) The tests were carried out on batches of 6 rats for each dose; immediately after the oral or intraperitoneal administration, the animals are placed in individual, transparent plastic 20×10×10 cm boxes provided with a pierced stainless steel lid. The stereotyped movements are rated from 0 to 3, in accordance with the method described by Simon and Chermat (J. Pharmacol. (Paris), 1972, 3, 235-238) every 10 minutes until they disappear in all the animals. The detailed curves are plotted and the surface area of the curve is calculated as described in the above reference.
# mice [3] = test: Anti-reserpine activity in mice (reserpine hypothermia); conditions: comparison of isomers; 32 mg/kg administered orally; schematic grades; listed as α diastereoisomer, 32 mg/kg
# Procedure: Anti-reserpine activity in mice
# At time 0, the mice receive reserpine (2.5 mg.kg^-1) by intraperitoneal administration.
# After 4 hours, when the hypothermia is significant (30 to 31°C.), the substance to be studied is administered intraperitoneally or orally. The rectal temperature is measured, using a probe, carrying a thermoelectric couple, inserted to a constant depth, every 30 minutes for 2 hours.
# mice [4] = test: Anti-apomorphine activity in mice (hypothermia caused by apomorphine); conditions: comparison of isomers; 32 mg/kg administered orally; schematic grades; listed as α diastereoisomer, 32 mg/kg
# rats [5] = test: Influence of pimozide on the stereotypies caused in rats; conditions: 8 mg.kg^-1 intraperitoneal
# Procedure: as §1
# Research into the antagonistic effects of the stereotypies caused in rats by the medicament according to the invention
# (a) Influence of pimozide
# At time 0, pimozide (1 mg.kg^-1) or distilled water is administered intraperitoneally; after 30 minutes, all the animals receive, by intraperitoneal administration, the medicament according to the invention, obtained in accordance with Example III (8 mg.kg^-1). The stereotypies are assessed as described above. The surface area of the curve of the stereotypies is calculated.
# rats [6] = test: Influence of alpha-methyltyrosine on the stereotypies caused in rats; conditions: 8 mg.kg^-1 intraperitoneal
# Procedure: as §1
# (b) Influence of alpha-methyltyrosine
# At time 0, the animals receive, by intraperitoneal administration, either distilled water or alphamethyltyrosine at a dose of 64 mg.kg^-1; after 150 minutes, they receive, by intraperitoneal administration, the medicament according to the invention, obtained in accordance with Example III, at a dose of 8 mg.kg^-1.
# The animals are observed under the conditions described above in the study of the stereotypies in rats.
compound,measurement,setting,value
"CC1CC(c2ccc(Cl)cc2)C(c2ccccc2)C(=O)O1 (stereo not drawn) [Example III, Trans-4-(4'-chlorophenyl)-6-methyl-3-phenyl-3,4,5,6-tetrahydropyrone-2, IIIα]",Increase in the motor activity in mice,mice [1],less significant
same,Stereotypy-forming action on rats,rats [2]; listed as 100% of α,0
same,Stereotypy-forming action on rats,rats [2]; listed as α diastereoisomer,virtually disappears
same,Anti-reserpine action,mice [3],less significant
same,Anti-apomorphine action,mice [4],persists
same,"surface area of the curve of the stereotypies, medicament by itself",rats [5],63
same,"surface area of the curve of the stereotypies, medicament administered after pimozide",rats [5]; 30 min after pimozide 1 mg.kg^-1 intraperitoneal,17
same,"surface area of the curve of the stereotypies, medicament by itself",rats [6],63
same,"surface area of the curve of the stereotypies, medicament + alpha-methyltyrosine",rats [6]; 150 min after alpha-methyltyrosine 64 mg.kg^-1 intraperitoneal,60.8

# Source: US4287206A, “Halogen derivatives of 8-hydroxycarboxylic acids; the processes for their preparation and medicaments in which they are present” (priority 1978, dated 1981)
